Results reported in paper PMC5668434, “Modulation of telomere protection by the PI3K/AKT pathway” (Nature Communications, 2017).
Like-named read-outs stand apart in the source and are kept apart here.

Columns and labels:
[1] = test system: TRF1 foci in CHA-9.3 mouse lung tumor cell line; assay: TRF1 foci immunofluorescence in CHA-9.3 cells; format: cell-based; details: for Inhibition of TRF1 foci (in words): 10 μM (GSK-2126458 1.0 μM), 24 h, CHA-9.3; for TRF1 levels as compared to bortezomib/DMSO-treated control cells: 10 μM plus bortezomib 50 nM, CHA 9-3
[2] = test system: p-AKT S473 in CHA-9.3 mouse lung cancer cell line; assay: Western blot of AKT phosphorylation at Ser473 in CHA-9.3 cells; format: cell-based; details: for p-AKT S473 inhibition (in words): 10 μM time course; for inhibition at 10 µM: Mus musculus
Method: These new chemical probes were prepared by replacement of a single key oxygen atom from the morpholine moiety by a methylene group, generating the piperidine derivatives ETP-51259 and ETP-50952 (Fig. 1a). To assess their PI3K cellular activity, we measured phosphorylation of residue Ser473 in AKT (p-AKT S473), a PI3K downstream target[61]–[63], by western blot analysis. To this end, we used the CHA-9.3 mouse lung cancer cell line previously generated by us[39]. […] Of note, the inhibitory activity of ETP-47037 was more prolonged than that of ETP-47228. Thus, ETP-47037 mediated p-AKT S473 inhibition was maintained during the 24-hour treatment while the ETP-47228 mediated inhibition decreased 35% after 24 h as compared to 1-h treatment but still was able to inhibit the pathway above 50% (Fig. 1c).
For detection of AKT, PRAS40 (T246) and pS6 in CHA9.3 cells, untreated control (DMSO) or treated with the indicated inhibitors, were lysed in RIPA buffer supplemented with 100 mM pefablock (Roche Diagnostics) and protease inhibitor cocktail (Roche Molecular Biochemicals). Proteins were resolved on 10% SDS-PAGE, and transferred to nitrocellulose membrane (Amersham^TM Protan^TM 0.2 µm nNC). Membranes were incubated with antibodies against phospho-AKT (Ser473), AKT, phospo-S6 (Ser 235/236), and S6Ribosomal from Cell Signaling, phospo-PRAS40 (Thr246) from BIOSURCE and anti α-tubulin form Sigma, overnight at 4 °C. After washing, blots were incubated with secondary antibody: Alexa Fluor 680 goat anti-rabbit IgG (Invitrogen) or anti-mouse IgG DyLight 800 conjugated (Thermo Scientific), and visualized using an Odyssey infrared imaging system (Li-Cor Biosciences).

PI3K (p110α) = target: T1, PI3K (p110α) (Homo sapiens, UniProt P42336); assay: PI3K alpha biochemical assay (ADP Hunter Plus); details: internal data; read-out: PI3Kα IC50
T1 construct: purchased Cama Biosciences (sic; Carna Biosciences) #07CBS-0402A

mTOR (FRAP1) = target: T2, mTOR (FRAP1) (Homo sapiens, UniProt P42345); assay: mTOR biochemical assay (LanthaScreen)
T2 construct: purchased ThermoFisher PV4753
T2 sequence (P42345 1360-2549 limits assumed): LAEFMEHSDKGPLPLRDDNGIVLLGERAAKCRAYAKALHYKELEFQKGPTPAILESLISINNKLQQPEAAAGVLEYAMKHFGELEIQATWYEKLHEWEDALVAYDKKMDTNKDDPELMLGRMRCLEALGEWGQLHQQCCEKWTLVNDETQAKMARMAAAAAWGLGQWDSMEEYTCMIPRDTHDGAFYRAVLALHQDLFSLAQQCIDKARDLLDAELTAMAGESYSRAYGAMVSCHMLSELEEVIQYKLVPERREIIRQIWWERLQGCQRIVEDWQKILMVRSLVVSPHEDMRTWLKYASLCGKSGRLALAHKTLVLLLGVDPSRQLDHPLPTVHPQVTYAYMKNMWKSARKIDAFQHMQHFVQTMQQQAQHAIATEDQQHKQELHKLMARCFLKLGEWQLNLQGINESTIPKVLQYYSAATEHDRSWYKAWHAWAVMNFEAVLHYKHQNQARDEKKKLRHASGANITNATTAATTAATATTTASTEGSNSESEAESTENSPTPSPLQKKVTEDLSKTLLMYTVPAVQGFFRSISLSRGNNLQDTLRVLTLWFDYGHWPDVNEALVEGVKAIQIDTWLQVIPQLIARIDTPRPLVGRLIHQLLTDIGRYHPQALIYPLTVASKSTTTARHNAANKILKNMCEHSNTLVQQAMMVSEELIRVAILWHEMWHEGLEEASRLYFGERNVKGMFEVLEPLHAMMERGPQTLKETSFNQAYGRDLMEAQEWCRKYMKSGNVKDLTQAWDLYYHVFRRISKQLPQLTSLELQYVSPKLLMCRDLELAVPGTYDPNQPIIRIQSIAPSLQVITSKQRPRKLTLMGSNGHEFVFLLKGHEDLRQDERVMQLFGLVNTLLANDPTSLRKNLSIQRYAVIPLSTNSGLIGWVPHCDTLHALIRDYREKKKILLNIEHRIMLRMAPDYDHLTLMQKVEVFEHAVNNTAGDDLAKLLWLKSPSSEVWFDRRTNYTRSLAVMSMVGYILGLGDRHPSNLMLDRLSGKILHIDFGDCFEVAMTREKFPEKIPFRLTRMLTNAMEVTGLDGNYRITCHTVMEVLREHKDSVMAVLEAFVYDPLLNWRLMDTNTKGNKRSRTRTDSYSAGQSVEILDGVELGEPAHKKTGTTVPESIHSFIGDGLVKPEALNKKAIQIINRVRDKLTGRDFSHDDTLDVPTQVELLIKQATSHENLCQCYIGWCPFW

JAK2 = target: T3, JAK2 (Homo sapiens, UniProt O60674); assay: ProQinase kinase panel; format: biochemical; details: read-out: Inh (%) at 1µM, JAK2
T3 construct: purchased ProQinase
T3 sequence (O60674 whole entry): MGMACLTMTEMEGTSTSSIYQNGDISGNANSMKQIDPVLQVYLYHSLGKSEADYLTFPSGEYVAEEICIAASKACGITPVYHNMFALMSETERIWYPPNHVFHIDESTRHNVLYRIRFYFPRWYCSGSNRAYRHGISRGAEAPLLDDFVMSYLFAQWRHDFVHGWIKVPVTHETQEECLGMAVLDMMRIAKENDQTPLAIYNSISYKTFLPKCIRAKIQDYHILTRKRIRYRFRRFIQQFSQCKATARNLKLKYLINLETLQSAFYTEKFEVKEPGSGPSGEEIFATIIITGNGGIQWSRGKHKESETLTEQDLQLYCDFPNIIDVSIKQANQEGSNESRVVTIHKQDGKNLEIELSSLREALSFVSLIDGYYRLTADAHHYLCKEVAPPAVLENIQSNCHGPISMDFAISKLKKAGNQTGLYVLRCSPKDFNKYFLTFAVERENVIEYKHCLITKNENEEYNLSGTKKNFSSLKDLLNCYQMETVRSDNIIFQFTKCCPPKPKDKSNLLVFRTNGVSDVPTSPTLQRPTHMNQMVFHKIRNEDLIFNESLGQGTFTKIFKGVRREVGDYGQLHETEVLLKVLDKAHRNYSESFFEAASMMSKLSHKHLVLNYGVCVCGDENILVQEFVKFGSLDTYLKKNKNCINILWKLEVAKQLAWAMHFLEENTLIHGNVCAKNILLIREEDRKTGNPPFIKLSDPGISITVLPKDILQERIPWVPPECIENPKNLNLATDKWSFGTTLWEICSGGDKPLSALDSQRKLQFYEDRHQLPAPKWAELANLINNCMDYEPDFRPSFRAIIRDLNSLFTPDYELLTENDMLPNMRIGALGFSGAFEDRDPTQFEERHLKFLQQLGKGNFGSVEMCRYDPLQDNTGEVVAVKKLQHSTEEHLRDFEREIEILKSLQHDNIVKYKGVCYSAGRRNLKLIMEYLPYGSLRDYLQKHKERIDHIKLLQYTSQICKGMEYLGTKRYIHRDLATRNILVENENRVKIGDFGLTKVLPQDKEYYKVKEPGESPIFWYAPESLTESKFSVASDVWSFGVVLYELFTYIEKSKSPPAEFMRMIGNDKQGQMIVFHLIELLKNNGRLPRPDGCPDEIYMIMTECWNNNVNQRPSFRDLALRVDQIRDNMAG
Method: (§1) Supplementary Table 1: Kinase selectivity profile of ETP-47037 and ETP-47228 at 1 µM. Selectivity against protein kinases was determined from evaluation of compounds at 1µM in ProQinase’s 24 selected panel that represents the ACG, STE, TKL, TK, CMGC CAMK and CK1 kinase families.

CDK8-CycC = target: T4, CDK8-CycC (Homo sapiens, UniProt P49336); assay: ProQinase kinase panel; format: biochemical; details: read-out: Inh (%) at 1µM, CDK8-CycC
T4 construct: purchased ProQinase
Method: as §1

IKK-beta = target: T5, IKK-beta (Homo sapiens, UniProt O14920); assay: ProQinase kinase panel; format: biochemical; details: read-out: Inh (%) at 1µM, IKK-beta
T5 construct: purchased ProQinase
Method: as §1

VEGF-R2 = target: T6, VEGF-R2 (Homo sapiens, UniProt P35968); assay: ProQinase kinase panel; format: biochemical; details: read-out: Inh (%) at 1µM, VEGF-R2
T6 construct: purchased ProQinase
Method: as §1

EGF-R = target: T7, EGF-R (Homo sapiens, UniProt P00533); assay: ProQinase kinase panel; format: biochemical; details: read-out: Inh (%) at 1µM, EGF-R
T7 construct: purchased ProQinase
T7 sequence (P00533 25-1210): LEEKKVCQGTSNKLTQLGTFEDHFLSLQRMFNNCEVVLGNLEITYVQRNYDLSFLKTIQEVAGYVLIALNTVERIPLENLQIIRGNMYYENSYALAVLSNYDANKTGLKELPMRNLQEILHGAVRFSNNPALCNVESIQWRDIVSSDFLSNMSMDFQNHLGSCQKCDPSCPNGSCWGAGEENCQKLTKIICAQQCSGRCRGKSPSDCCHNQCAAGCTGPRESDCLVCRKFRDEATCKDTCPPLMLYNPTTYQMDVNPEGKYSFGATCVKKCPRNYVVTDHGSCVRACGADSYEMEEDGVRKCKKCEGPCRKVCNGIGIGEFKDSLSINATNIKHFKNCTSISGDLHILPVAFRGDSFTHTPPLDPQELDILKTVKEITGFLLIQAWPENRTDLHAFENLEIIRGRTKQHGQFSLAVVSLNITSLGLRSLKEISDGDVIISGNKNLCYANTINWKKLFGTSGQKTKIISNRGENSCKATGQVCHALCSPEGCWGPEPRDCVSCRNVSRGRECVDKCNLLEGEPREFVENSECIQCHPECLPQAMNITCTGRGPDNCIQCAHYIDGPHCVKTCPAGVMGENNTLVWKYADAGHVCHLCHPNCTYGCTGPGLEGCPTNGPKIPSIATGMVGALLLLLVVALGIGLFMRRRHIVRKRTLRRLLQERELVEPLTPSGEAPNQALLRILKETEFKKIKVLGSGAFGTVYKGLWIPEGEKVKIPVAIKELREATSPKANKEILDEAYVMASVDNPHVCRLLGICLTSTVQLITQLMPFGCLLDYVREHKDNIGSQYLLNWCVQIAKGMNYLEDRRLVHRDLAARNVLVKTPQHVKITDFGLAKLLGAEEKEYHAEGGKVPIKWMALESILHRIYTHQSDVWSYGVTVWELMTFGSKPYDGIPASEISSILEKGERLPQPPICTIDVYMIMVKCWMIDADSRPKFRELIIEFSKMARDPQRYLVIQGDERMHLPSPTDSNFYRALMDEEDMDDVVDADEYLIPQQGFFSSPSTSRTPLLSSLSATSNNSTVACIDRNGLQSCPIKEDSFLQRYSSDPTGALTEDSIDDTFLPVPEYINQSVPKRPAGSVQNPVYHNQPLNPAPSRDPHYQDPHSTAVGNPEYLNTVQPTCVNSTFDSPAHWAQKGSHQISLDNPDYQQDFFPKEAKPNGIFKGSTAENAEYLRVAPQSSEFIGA
Method: as §1

AKT2 = target: T8, AKT2 (Homo sapiens, UniProt P31751); assay: ProQinase kinase panel; format: biochemical; details: read-out: Inh (%) at 1µM, AKT2
T8 construct: purchased ProQinase
T8 sequence (P31751 whole entry): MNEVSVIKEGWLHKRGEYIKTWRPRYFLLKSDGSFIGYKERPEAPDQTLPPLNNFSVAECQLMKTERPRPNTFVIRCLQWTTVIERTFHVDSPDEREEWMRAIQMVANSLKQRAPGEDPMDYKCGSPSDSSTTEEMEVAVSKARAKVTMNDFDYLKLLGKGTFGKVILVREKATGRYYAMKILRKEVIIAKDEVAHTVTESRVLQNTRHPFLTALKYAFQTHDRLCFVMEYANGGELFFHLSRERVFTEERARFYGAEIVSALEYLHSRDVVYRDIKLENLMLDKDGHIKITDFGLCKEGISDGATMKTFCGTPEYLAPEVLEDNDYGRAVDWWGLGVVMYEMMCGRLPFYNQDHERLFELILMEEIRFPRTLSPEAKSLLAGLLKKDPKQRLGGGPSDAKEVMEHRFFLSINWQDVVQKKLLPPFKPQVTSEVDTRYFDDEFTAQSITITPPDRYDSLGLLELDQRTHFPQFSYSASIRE
Method: as §1

DYRK1A = target: T9, DYRK1A (Homo sapiens, UniProt Q13627); assay: ProQinase kinase panel; format: biochemical; details: read-out: Inh (%) at 1µM, DYRK1A
T9 construct: purchased ProQinase
Method: as §1

FAK = target: T10, FAK (Homo sapiens, UniProt Q05397); assay: ProQinase kinase panel; format: biochemical; details: read-out: Inh (%) at 1µM, FAK
T10 construct: purchased ProQinase
T10 sequence (Q05397 whole entry): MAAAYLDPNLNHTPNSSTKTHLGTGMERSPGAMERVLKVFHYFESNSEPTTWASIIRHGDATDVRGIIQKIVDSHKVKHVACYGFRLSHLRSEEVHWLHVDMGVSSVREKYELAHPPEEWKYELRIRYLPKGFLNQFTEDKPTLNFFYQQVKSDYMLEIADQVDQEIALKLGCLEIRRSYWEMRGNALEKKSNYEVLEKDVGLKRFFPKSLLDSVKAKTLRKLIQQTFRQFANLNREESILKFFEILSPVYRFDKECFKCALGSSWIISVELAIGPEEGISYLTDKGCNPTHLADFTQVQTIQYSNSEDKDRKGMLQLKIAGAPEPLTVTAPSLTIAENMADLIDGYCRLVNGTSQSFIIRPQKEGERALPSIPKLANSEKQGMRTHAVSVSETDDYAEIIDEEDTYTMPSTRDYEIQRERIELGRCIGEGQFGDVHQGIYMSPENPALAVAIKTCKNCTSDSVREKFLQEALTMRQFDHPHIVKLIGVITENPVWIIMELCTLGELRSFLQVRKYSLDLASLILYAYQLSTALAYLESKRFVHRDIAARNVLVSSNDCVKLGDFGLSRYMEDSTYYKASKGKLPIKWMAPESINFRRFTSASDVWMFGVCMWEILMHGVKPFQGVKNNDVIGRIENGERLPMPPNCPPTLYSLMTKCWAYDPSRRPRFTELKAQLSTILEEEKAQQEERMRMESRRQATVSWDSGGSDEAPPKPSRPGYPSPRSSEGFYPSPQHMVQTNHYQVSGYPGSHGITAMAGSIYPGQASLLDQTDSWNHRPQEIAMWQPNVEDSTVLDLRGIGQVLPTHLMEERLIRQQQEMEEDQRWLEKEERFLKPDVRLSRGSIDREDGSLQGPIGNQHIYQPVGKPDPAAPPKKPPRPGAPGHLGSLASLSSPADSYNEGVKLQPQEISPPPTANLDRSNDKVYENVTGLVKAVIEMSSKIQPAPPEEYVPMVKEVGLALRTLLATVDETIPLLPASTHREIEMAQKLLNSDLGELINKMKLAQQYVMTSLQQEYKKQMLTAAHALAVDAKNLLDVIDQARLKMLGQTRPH
Method: as §1

PDK1 = target: T11, PDK1 (Homo sapiens, UniProt O15530); assay: ProQinase kinase panel; format: biochemical; details: read-out: Inh (%) at 1µM, PDK1
T11 construct: purchased ProQinase
Method: as §1

FGF-R1 = target: T12, FGF-R1 (Homo sapiens, UniProt P11362); assay: ProQinase kinase panel; format: biochemical; details: read-out: Inh (%) at 1µM, FGF-R1
T12 construct: purchased ProQinase
Method: as §1

IGF1-R = target: T13, IGF1-R (Homo sapiens, UniProt P08069); assay: ProQinase kinase panel; format: biochemical; details: read-out: Inh (%) at 1µM, IGF1-R
T13 construct: purchased ProQinase
Method: as §1

[3] = test system: panel of 24 kinases representing the human kinome; assay: ProQinase 24 kinase selectivity panel (whole panel); format: biochemical; details: 1 µM
Method: The kinase selectivity of the inhibitors used here was ensured in order to discard potential off-targets effects contributing to the observed TRF1 modulation.
as §1

IPSCs = test system: IPSCs; parameters: method as in PMID 25971796; details: cited from earlier work
[4] = test system: TRF1 protein in CHA 9-3 nuclear extracts; assay: Western blot of nuclear TRF1 in CHA 9-3 cells; format: cell-based, mouse; details: 10 μM
Method: Blots were incubated with the primary antibodies anti-TRF1 1:500 (home-made monoclonal Rat, CNIO; TRF-78, ABCAM, ab10579) and with anti-SMC1 1:2000 (Bethyl Laboratories #A300-055A) as loading control. For nuclear protein preparation, the Nuclear/Cytosol Fractionation Kit (K266-100, BioVision) was used according to the manufactures protocol.

[5] = 1 h, 1 h, read-out: Inhibition pAKT (Ser 473) with regard to DMSO
[6] = 4 h, 4 h, read-out: Inhibition pAKT (Ser 473) with regard to DMSO
[7] = 8 h, 8 h, read-out: Inhibition pAKT (Ser 473) with regard to DMSO
[8] = 16 h, 16 h, read-out: Inhibition pAKT (Ser 473) with regard to DMSO
[9] = 24 h, 24 h, read-out: Inhibition pAKT (Ser 473) with regard to DMSO

SMILES | Inhibition of TRF1 foci (in words) [1] | TRF1 levels as compared to bortezomib/DMSO-treated control cells [1] | p-AKT S473 inhibition (in words) [2] | inhibition at 10 µM [2, 5] | inhibition at 10 µM [2, 6] | inhibition at 10 µM [2, 7] | inhibition at 10 µM [2, 8] | inhibition at 10 µM [2, 9] | IC50 (PI3K (p110α)) | inhibition at 1 µM (JAK2) | inhibition at 1 µM (CDK8-CycC) | inhibition at 1 µM (IKK-beta) | inhibition at 1 µM (VEGF-R2) | inhibition at 1 µM (EGF-R) | inhibition at 1 µM (AKT2) | inhibition at 1 µM (DYRK1A) | inhibition at 1 µM (FAK) | inhibition at 1 µM (PDK1) | inhibition at 1 µM (FGF-R1) | inhibition at 1 µM (IGF1-R) | further results
CS(=O)(=O)N1CCN(Cc2cc3c(N4CCOCC4)nc(-c4cnc(N)nc4)cn3n2)CC1 [ETP-47037] | efficient inhibition of TRF1 foci | significantly lower | strongly inhibited | 92% | 97% | 96% | 97% | 94% | 0.99 nM | 2% | -4.5% | 1% | 21.5% | 22.5% | -7.5% | -1% | 14.5% | 7% | 6.5% | 2% | IC50 (mTOR (FRAP1); as given in the text): 1700 nM; Inhibition of any kinase of the 24 kinase panel (in words) [3]: negligible inhibition of any kinase tested; Formation of MTS in IPSCs (IPSCs): induce formation of MTS; TRF1 protein levels in nuclear extracts [4]: significantly decreased
Cc1cnc2c(N3CCOCC3)nc(-c3ccc(NC(=O)Nc4ccc(C(=O)N5CCN(C)CC5)cc4)cc3)cn12 [ETP-47228] | efficient inhibition of TRF1 foci | significantly lower | strongly inhibited | 90% | 93% | 78% | 66% | 59% | 2.6 nM | 4% | 1% | -10% | -3% | 0.5% | -8% | 4% | -7.5% | -9% | -3.5% | -19% | inhibition at 10 µM ([2]; read-out: Decrease of p-AKT S473 inhibition after 24 h as compared to 1-h treatment): 35%; IC50 (mTOR (FRAP1); internal data): 443 nM; Inhibition of any kinase of the 24 kinase panel (in words) [3]: negligible inhibition of any kinase tested; Formation of MTS in IPSCs (IPSCs): induce formation of MTS; TRF1 protein levels in nuclear extracts [4]: significantly decreased
